# Experimental data from patent publication US20180273970A1, “PLASMID, TRANSFORMED PLANT CELL AND TRANSGENIC PLANT COMPRISING THE SAME, AND METHODS FOR PREPARING A TRANSGENIC PLANT AND FOR INCREASING YIELD OF A PLANT UNDER ABIOTIC STRESSES” (Academia Sinica, priority 2014, published 2018).
# T1: GAD-SnRK1A (full-length SnRK1A 1-505 fused to the Gal4 activation domain) (rice, UniProt Q852Q2 1-505)
# T1 construct: range 1-505
# T1 sequence (looked up): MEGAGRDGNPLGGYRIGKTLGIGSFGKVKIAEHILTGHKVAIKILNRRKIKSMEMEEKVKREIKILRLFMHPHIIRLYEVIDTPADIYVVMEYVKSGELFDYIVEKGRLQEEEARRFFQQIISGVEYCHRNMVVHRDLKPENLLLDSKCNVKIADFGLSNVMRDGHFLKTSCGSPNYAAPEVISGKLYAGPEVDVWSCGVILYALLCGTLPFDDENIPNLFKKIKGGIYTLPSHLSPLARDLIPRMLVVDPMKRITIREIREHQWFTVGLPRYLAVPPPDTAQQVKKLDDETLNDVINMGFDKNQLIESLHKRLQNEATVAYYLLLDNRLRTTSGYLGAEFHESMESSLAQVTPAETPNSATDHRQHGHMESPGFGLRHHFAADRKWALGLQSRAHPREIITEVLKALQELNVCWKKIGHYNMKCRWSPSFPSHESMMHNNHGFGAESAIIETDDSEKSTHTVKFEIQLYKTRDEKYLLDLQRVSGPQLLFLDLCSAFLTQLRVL
# T2: SnRK1A (full length, expressed from Ubi:SnRK1A) (rice, UniProt Q852Q2 1-505)
# T2 construct: range 1-505; also called pUbi-SnRK1A-Nos
# T2 sequence (looked up): T1 sequence (looked up)
# B1: GBD-SKIN2 86-261 (other)
# chain: MKLLSSIEQACDICRLKKLKCSKEKPKCAKCLKNNWECRYSPKTKRSPLTRAHLTEVESRLERLEQLFLLIFPREDLDMILKMDSLQDIKALLTGLFVQDNVNKDAVTDRLASVETDMPLTLRQHRISATSSSEESSNKGQRQLTVSSKAKEVAVEVEGGGLGFHGLGTLESLEDALPIKRGLSNFYAGKSKSFTSLAEAAAKAAAKEIAKPENPFNKRRRVLAAWSRRRASCSSLATTYLPPLLAPDHAVVEEEDEEDDSDAEQCSGSGGGNRRREPTFPPPRLSLHAQKSSLTPRSSNPASSFRSPRSFSLSDLQNAGSYN
# B2: SKIN1-GFP (other)
# chain: MSTAVADVPPAAAYGFPGSAKRGKPEEVVVLMGKRRNEGFFIEEEEEEEEVLTESSSIGAPSPASSSIGENSGEEEGGDDEEEVESKLKAEDEQVGLGCLDALEESLPIKRGLSNFYAGKSKSFTSLAEATASPAAAANELAKPENPFNKRRRILATWSRRASCSSLATATYLPPLLAPDHAVAEGDEGEEEDDDSDDDERQHRGKNGGRRESAAPPLPLPPPRLTLHTQMGGMVRRNGTFRSPRSLSLSDLQNSGGSC
# notes: also called Ubi:SKIN1-GFP; SKIN-GFP; not shown: green fluorescence protein (GFP)
# What was measured:
# rice seedlings [1] = assay: Seed germination and shoot elongation in air or under water (hypoxia); format: in vivo; conditions: under water with 90 mM sucrose
# Protocol: FIG. 6. SKINs suppress sugar production necessary for seedling growth under hypoxia. Rice seeds were germinated in air or in water with or without 90 mM sucrose at 28° C. under a 14-h light/10-h dark cycle for various lengths of time. Shoot length of seedlings were measured daily. Error bars indicate the S.E. of shoot length (n=10). Panel 1: transgenic line SKIN1-04 overexpressing SKIN1; panel 2: transgenic line SKIN2-04 overexpressing SKIN2. For data using more SKIN-Ox and SKIN-Ri lines, see also FIG. 16 online.
# FIG. 16. SKINs suppress sugar production necessary for underwater seedling growth. Rice seeds of SKIN-Ox and SKIN-Ri lines were germinated in air or in water with or without 90 mM sucrose for various lengths of time. Shoot length of seedlings were measured daily. Error bars indicate the S.E. of shoot length (n=10). Panel 1: in air; panel 2: in water; panel 3: in water with sucrose.
# The experiment was performed as described (Lee et al., 2009). For germination in air, seeds were placed on 3M filter papers wetted with water in a 50-ml centrifuge tube which contains half-strength MS agar medium. For germination under water, seeds were placed in a 50-ml centrifuge tube, autoclaved water was carefully poured into the tube to avoid any air bubbles, and tubes were sealed with lids.
# rice seedlings [2] = assay: Seedling shoot and root growth under light/dark cycle or continuous darkness, with or without sucrose; format: in vivo; conditions: 3% (88 mM) sucrose, 6 days
# Protocol: FIG. 5. SKINs repress seedling growth by inhibiting nutrient mobilization in the endosperm. Transgenic lines SKIN1-Ox(O3), SKIN1-Ri(R3), SKIN2-Ox(02) and SKIN2-Ri(R1) were used in the following experiments. (A) Seeds were germinated and grown in water at 28° C. under a 14-h light/10-h dark cycle or continuous darkness without (panel 1) or with (panel 2) 3% (90 mM) sucrose for 6 days. (B) Lengths of shoots and roots of seedlings in (A) were quantified. Panels 1 and 2, without and with sucrose, respectively. (C) Seedlings were grown under a 14-h light/10-h dark cycle or continuous darkness for 3 days. Total RNA was extracted and subjected to quantitative (real-time) RT-PCR analysis using primers specific for αAmy3 (panel 1) and EP3A (panel 2). Error bars represent SE (n=12) at significance levels: * p<0.1, **p<0.05 in (B) and (C).
# Rice (Oryza sativa cv Tainung 67) and barley (Hordeum vulgare cv Himalaya) were used in this study. Embryo calli were induced in the Murashige & Skoog (MS) medium containing 3% sucrose and […] 2,4-D (2,4-Dichlorophenoxyacetic acid) for 5 days. For hydroponic culture of rice seedlings, seeds were sterilized with 1.5% NaOCl plus Tween 20 for 1 h, washed extensively with distilled water, and germinated in a petri dish with wetted filter papers at 28° C. under a 14-h light/10-h dark condition unless otherwise indicated. […]
# [3] = target: T1, GAD-SnRK1A (full-length SnRK1A 1-505 …); assay: rice embryo GAL4-UAS two-hybrid, luciferase reporter
# Protocol: FIG. 2. The N-terminus of SKIN interacts with the kinase domain of SnRK1A. For the GAL4-UAS two-hybrid assay, rice embryos were co-transfected with effector and reporter plasmids, incubated in −S medium for 24 h, and assayed for luciferase activity. The luciferase activity in rice embryos bombarded with effectors Ubi:GAD, Ubi:GBD and reporter 5XUAS-35S mp:Luc was set to 1×, and other values were calculated relative to this value. Error bars indicate the SE for three replicate experiments. Significance levels: * p<0.1, ** p<0.05. The Y axis indicates the relative luciferase activity with different constructs. (A) Plasmid constructs. (B) Rice embryos were co-transfected with effectors Ubi:GAD-SnRK1A and Ubi:GBD-SKIN (wild type or truncated) and reporter 5XUAS-35S mp:Luc. (C) Rice embryos were co-transfected with effectors Ubi:GAD-SnRK1A [wild type, kinase domain (KD) or regulatory (RD)], Ubi:GBD-SKIN and reporter 5XUAS-35S mp:Luc. (D) Rice embryos were co-transfected with effectors Ubi:GAD-SnRK1A and Ubi:GBD-SKIN and reporter 5XUAS-35S mp:Luc, and incubated in −S medium containing 1 μM ABA.
# Rice embryos were prepared for particle bombardment as described (Chen et al., 2006). The rice embryos were bombarded with reporter, effectors and internal control at a ratio of 4:2:1 for single effector or 4:2:2:1 for two effectors. […]
# [4] = target: T2, SnRK1A (full length, expressed from …); assay: co-expression and confocal localization of GFP fusions in barley aleurone cells
# Protocol: Detection of cellular localization of SKIN-GFP, SnRK1A-GFP and MYBS1-GFP fusion proteins were performed as described (Hong et al., 2012). Embryoless barley and rice seeds were sterilized with 1% NaOCl for 30 mins, and incubated in a buffer containing 20 mM CaCl₂ and 20 mM sodium succinate, pH 5.0, for 4 days. Aleurone layers were isolated by scratching away starch in the endosperm with a razor blade. Four aleurone layers were arranged in a 10-cm dish for bombardment. Aleurone layers expressing GFP were examined with a Ziess confocal microscope (LSM510META) using a 488-nm laser line for excitation and a 515- to 560-nm long pass filter for emission.
# The subcellular localization of SKIN and SnRK1A was determined. As SKINs interact with the KD of SnRK1A, the full-length, KD and RD of SnRK1A were fused to the green fluorescence protein (GFP) and expressed under the control of the Ubi promoter in a barley aleurone cell transient expression system (Hong et al., 2012). As shown in FIG. 7 and FIG. 17, SnRK1A-GFP and SnRK1A-KD-GFP were largely localized in the cytoplasm and minor in the nucleus and SnRK1A-RD-GFP mainly in the nucleus, whereas SKIN1-GFP was predominantly localized in the nucleus and minor in the cytoplasm. Co-expression of SnRK1A-GFP with SKIN1 excluded all SnRK1A-GFP from the nucleus. […]
molecule,measurement,setting,value
OC[C@H]1O[C@@](CO)(O[C@H]2O[C@H](CO)[C@@H](O)[C@H](O)[C@H]2O)[C@@H](O)[C@@H]1O [sucrose],Effect of sucrose on retarded shoot elongation of SKIN-Ox lines,rice seedlings [1],significantly recovered
same,Effect of sucrose on growth of SKIN-Ox lines,rice seedlings [2],recover the growth
B1,binding result,[3],no binding
B2,binding result,[4],binds
